# Measured values reported in PubChem BioAssay (NCI).
#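 Abbreviation: GI50, concentration required for 50% inhibition of growth. TGI: total growth inhibition.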
# Tests used:
# Test in all cases: DTP human tumour cell line panel, 384-well format
# MCF7 breast = system: MCF7 breast
# SNB-19 CNS = system: SNB-19 CNS
# A498 renal = system: A498 renal
# A549 NSCLC = system: A549 NSCLC
# HT29 colon = system: HT29 colon
# 786-0 renal = system: 786-0 renal
# U251 glioblastoma = system: U251 glioblastoma
# SK-OV-3 ovarian = system: SK-OV-3 ovarian
# MDA-MB-435 melanoma = system: MDA-MB-435 melanoma
# SF-295 CNS = system: SF-295 CNS
# UACC-62 melanoma = system: UACC-62 melanoma
# IGROV1 ovarian = system: IGROV1 ovarian
# KM12 colon = system: KM12 colon
# NCI-H460 NSCLC = system: NCI-H460 NSCLC
# SF-268 CNS = system: SF-268 CNS
# M14 melanoma = system: M14 melanoma
# LOX IMVI melanoma = system: LOX IMVI melanoma
# UO-31 renal = system: UO-31 renal
# OVCAR-3 ovarian = system: OVCAR-3 ovarian
# EKVX NSCLC = system: EKVX NSCLC
# UACC-257 melanoma = system: UACC-257 melanoma
# K-562 leukemia = system: K-562 leukemia
# COLO 205 colon = system: COLO 205 colon
# HCC-2998 colon = system: HCC-2998 colon
# HCT-116 colon = system: HCT-116 colon
# NCI-H322M lung = system: NCI-H322M lung
# HOP-92 NSCLC = system: HOP-92 NSCLC
# SF-539 CNS = system: SF-539 CNS
# CAKI-1 renal = system: CAKI-1 renal
# PC-3 prostate = system: PC-3 prostate
# NCI-H23 lung = system: NCI-H23 lung
# HCT-15 colon = system: HCT-15 colon
# CCRF-CEM leukemia = system: CCRF-CEM leukemia
# MALME-3M melanoma = system: MALME-3M melanoma
# RPMI-8226 leukemia = system: RPMI-8226 leukemia
# SK-MEL-28 melanoma = system: SK-MEL-28 melanoma
# T-47D breast = system: T-47D breast
# TK-10 renal = system: TK-10 renal
# SW-620 colon = system: SW-620 colon
# ACHN renal = system: ACHN renal
# RXF 393 renal = system: RXF 393 renal
# HS 578T breast = system: HS 578T breast
# MDA-MB-468 breast = system: MDA-MB-468 breast
# SNB-75 CNS = system: SNB-75 CNS
# SK-MEL-5 melanoma = system: SK-MEL-5 melanoma
# NCI/ADR-RES ovarian = system: NCI/ADR-RES ovarian
# BT-549 breast = system: BT-549 breast
# NCI-H522 lung = system: NCI-H522 lung
# NCI-H226 lung = system: NCI-H226 lung
# OVCAR-8 ovarian = system: OVCAR-8 ovarian
# OVCAR-4 ovarian = system: OVCAR-4 ovarian
# MOLT-4 leukemia = system: MOLT-4 leukemia
# HOP-62 NSCLC = system: HOP-62 NSCLC
# DU-145 prostate = system: DU-145 prostate
# HL-60(TB) leukemia = system: HL-60(TB) leukemia
# SR leukemia = system: SR leukemia
# OVCAR-5 ovarian = system: OVCAR-5 ovarian
# SN12C renal = system: SN12C renal
# MDA-MB-231 breast = system: MDA-MB-231 breast
smiles,measurement,setting,value
Nc1nc(Cl)nc2c1ncn2[C@@H]1O[C@H](COS(N)(=O)=O)[C@@H](O)[C@H]1O,TGI,MCF7 breast,69.7 nM
same,TGI,SNB-19 CNS,13.6 nM
same,GI50,A498 renal,19.8 nM
same,TGI,A498 renal,39.2 nM
same,GI50,A549 NSCLC,15.6 nM
same,TGI,A549 NSCLC,44 nM
same,GI50,HT29 colon,18.4 nM
same,TGI,HT29 colon,33.3 nM
same,GI50,786-0 renal,17.3 nM
same,TGI,786-0 renal,34.1 nM
same,GI50,U251 glioblastoma,14.3 nM
same,TGI,U251 glioblastoma,34.2 nM
same,GI50,SK-OV-3 ovarian,12.4 nM
same,TGI,SK-OV-3 ovarian,44.1 nM
same,TGI,MDA-MB-435 melanoma,16.7 nM
same,GI50,SF-295 CNS,21.4 nM
same,TGI,SF-295 CNS,48.3 nM
same,GI50,UACC-62 melanoma,16.4 nM
same,TGI,UACC-62 melanoma,30.3 nM
same,GI50,IGROV1 ovarian,20.5 nM
same,TGI,IGROV1 ovarian,54.7 nM
same,TGI,KM12 colon,15.1 nM
same,TGI,NCI-H460 NSCLC,32 nM
same,TGI,SF-268 CNS,11.4 nM
same,GI50,M14 melanoma,16.6 nM
same,TGI,M14 melanoma,30.4 nM
same,GI50,LOX IMVI melanoma,17.3 nM
same,TGI,LOX IMVI melanoma,31.6 nM
same,GI50,UO-31 renal,19.4 nM
same,TGI,UO-31 renal,35.8 nM
same,GI50,OVCAR-3 ovarian,20.9 nM
same,TGI,OVCAR-3 ovarian,41.5 nM
same,GI50,EKVX NSCLC,22.3 nM
same,TGI,EKVX NSCLC,49.5 nM
same,GI50,UACC-257 melanoma,20.1 nM
same,TGI,UACC-257 melanoma,36.5 nM
same,TGI,K-562 leukemia,14 nM
same,GI50,COLO 205 colon,18.2 nM
same,TGI,COLO 205 colon,38 nM
same,GI50,HCC-2998 colon,14.6 nM
same,TGI,HCC-2998 colon,28.9 nM
same,TGI,HCT-116 colon,40.9 nM
same,TGI,NCI-H322M lung,27.4 nM
same,GI50,HOP-92 NSCLC,10 nM
same,TGI,HOP-92 NSCLC,25 nM
same,GI50,SF-539 CNS,15 nM
same,TGI,SF-539 CNS,28.6 nM
same,GI50,CAKI-1 renal,15.7 nM
same,TGI,CAKI-1 renal,42.2 nM
same,GI50,PC-3 prostate,12.3 nM
same,TGI,PC-3 prostate,33.6 nM
same,GI50,NCI-H23 lung,10.9 nM
same,TGI,NCI-H23 lung,24 nM
same,GI50,HCT-15 colon,20.7 nM
same,TGI,HCT-15 colon,45.1 nM
same,TGI,CCRF-CEM leukemia,10.5 nM
same,GI50,MALME-3M melanoma,11.1 nM
same,TGI,MALME-3M melanoma,23.3 nM
same,TGI,RPMI-8226 leukemia,11.8 nM
same,GI50,SK-MEL-28 melanoma,13.8 nM
same,TGI,SK-MEL-28 melanoma,27.1 nM
same,TGI,T-47D breast,50.7 nM
same,TGI,TK-10 renal,36 nM
same,TGI,SW-620 colon,42.8 nM
same,GI50,ACHN renal,24.3 nM
same,TGI,ACHN renal,57.5 nM
same,GI50,RXF 393 renal,16.5 nM
same,TGI,RXF 393 renal,31.9 nM
same,GI50,HS 578T breast,15.1 nM
same,TGI,HS 578T breast,29.4 nM
same,GI50,MDA-MB-468 breast,13.3 nM
same,TGI,MDA-MB-468 breast,26.5 nM
same,TGI,SNB-75 CNS,19.9 nM
same,GI50,SK-MEL-5 melanoma,15.9 nM
same,TGI,SK-MEL-5 melanoma,29.6 nM
Cn1ncnc1C1c2n[nH]c(=O)c3cc(F)cc(c23)NC1c1ccc(F)cc1 (stereo not drawn),GI50,MCF7 breast,3630 nM
same,TGI,MCF7 breast,> 100000 nM
same,GI50,SNB-19 CNS,5200 nM
same,TGI,SNB-19 CNS,> 100000 nM
same,GI50,A498 renal,24800 nM
same,TGI,A498 renal,> 100000 nM
same,GI50,A549 NSCLC,> 100000 nM
same,TGI,A549 NSCLC,> 100000 nM
same,GI50,HT29 colon,> 100000 nM
same,TGI,HT29 colon,> 100000 nM
same,GI50,U251 glioblastoma,3460 nM
same,TGI,U251 glioblastoma,> 100000 nM
same,GI50,SK-OV-3 ovarian,2300 nM
same,TGI,SK-OV-3 ovarian,> 100000 nM
same,GI50,MDA-MB-435 melanoma,> 100000 nM
same,TGI,MDA-MB-435 melanoma,> 100000 nM
same,GI50,NCI/ADR-RES ovarian,8170 nM
same,TGI,NCI/ADR-RES ovarian,> 100000 nM
same,GI50,SF-295 CNS,383 nM
same,TGI,SF-295 CNS,8070 nM
same,GI50,BT-549 breast,4680 nM
same,TGI,BT-549 breast,> 100000 nM
same,GI50,NCI-H522 lung,> 100000 nM
same,TGI,NCI-H522 lung,> 100000 nM
same,GI50,UACC-62 melanoma,> 100000 nM
same,TGI,UACC-62 melanoma,> 100000 nM
same,GI50,IGROV1 ovarian,> 100000 nM
same,TGI,IGROV1 ovarian,> 100000 nM
same,GI50,NCI-H226 lung,> 100000 nM
same,TGI,NCI-H226 lung,> 100000 nM
same,GI50,OVCAR-8 ovarian,2150 nM
same,TGI,OVCAR-8 ovarian,> 100000 nM
same,GI50,KM12 colon,> 100000 nM
same,TGI,KM12 colon,> 100000 nM
same,GI50,OVCAR-4 ovarian,19000 nM
same,TGI,OVCAR-4 ovarian,> 100000 nM
same,GI50,NCI-H460 NSCLC,19.1 nM
same,TGI,NCI-H460 NSCLC,1560 nM
same,GI50,SF-268 CNS,1730 nM
same,TGI,SF-268 CNS,> 100000 nM
same,GI50,MOLT-4 leukemia,234 nM
same,TGI,MOLT-4 leukemia,1060 nM
same,GI50,LOX IMVI melanoma,2430 nM
same,TGI,LOX IMVI melanoma,> 100000 nM
same,GI50,OVCAR-3 ovarian,82700 nM
same,TGI,OVCAR-3 ovarian,> 100000 nM
same,GI50,EKVX NSCLC,> 100000 nM
same,TGI,EKVX NSCLC,> 100000 nM
same,GI50,UACC-257 melanoma,> 100000 nM
same,TGI,UACC-257 melanoma,> 100000 nM
same,GI50,COLO 205 colon,1850 nM
same,TGI,COLO 205 colon,> 100000 nM
same,GI50,HOP-62 NSCLC,278 nM
same,TGI,HOP-62 NSCLC,4140 nM
same,GI50,DU-145 prostate,2200 nM
same,TGI,DU-145 prostate,14400 nM
same,GI50,HL-60(TB) leukemia,1200 nM
same,TGI,HL-60(TB) leukemia,2560 nM
same,GI50,HCT-116 colon,857 nM
same,TGI,HCT-116 colon,> 100000 nM
same,GI50,NCI-H322M lung,> 100000 nM
same,TGI,NCI-H322M lung,> 100000 nM
same,GI50,HOP-92 NSCLC,> 100000 nM
same,TGI,HOP-92 NSCLC,> 100000 nM
same,GI50,SF-539 CNS,1810 nM
same,TGI,SF-539 CNS,> 100000 nM
same,GI50,CAKI-1 renal,> 100000 nM
same,TGI,CAKI-1 renal,> 100000 nM
same,GI50,PC-3 prostate,> 100000 nM
same,TGI,PC-3 prostate,> 100000 nM
same,GI50,NCI-H23 lung,1890 nM
same,TGI,NCI-H23 lung,> 100000 nM
same,GI50,HCT-15 colon,32500 nM
same,TGI,HCT-15 colon,> 100000 nM
same,GI50,MALME-3M melanoma,> 100000 nM
same,TGI,MALME-3M melanoma,> 100000 nM
same,GI50,RPMI-8226 leukemia,1650 nM
same,TGI,RPMI-8226 leukemia,> 100000 nM
same,TGI,SR leukemia,21.5 nM
same,GI50,SK-MEL-28 melanoma,> 100000 nM
same,TGI,SK-MEL-28 melanoma,> 100000 nM
same,GI50,T-47D breast,> 100000 nM
same,TGI,T-47D breast,> 100000 nM
same,GI50,TK-10 renal,> 100000 nM
same,TGI,TK-10 renal,> 100000 nM
same,GI50,OVCAR-5 ovarian,> 100000 nM
same,TGI,OVCAR-5 ovarian,> 100000 nM
same,GI50,ACHN renal,43600 nM
same,TGI,ACHN renal,> 100000 nM
same,GI50,SN12C renal,1530 nM
same,TGI,SN12C renal,> 100000 nM
same,GI50,MDA-MB-231 breast,> 100000 nM
same,TGI,MDA-MB-231 breast,> 100000 nM
same,GI50,RXF 393 renal,> 100000 nM
same,TGI,RXF 393 renal,> 100000 nM
same,GI50,HS 578T breast,> 100000 nM
same,TGI,HS 578T breast,> 100000 nM
same,GI50,MDA-MB-468 breast,677 nM
same,TGI,MDA-MB-468 breast,4680 nM
same,GI50,SNB-75 CNS,5520 nM
same,TGI,SNB-75 CNS,> 100000 nM
same,GI50,SK-MEL-5 melanoma,> 100000 nM
same,TGI,SK-MEL-5 melanoma,> 100000 nM
